Reference: ChEMBL document CHEMBL1149631, “Synthesis of 3,8,9-trisubstituted-1,7,9-triaza-fluorene-6-carboxylic acid derivatives as a new class of insulin secretagogues” (Bioorg Med Chem, 2007)

How the values were obtained:
Type in all cases: functional
[1] = Effect on glucose-dependent insulin secretion activity per ug of total protein in rat RIN5F cells at 1 uM after 30 mins
[2] = Effect on glucose-dependent insulin secretion activity per ug of total protein in rat RIN5F cells at 0.1 uM after 30 mins
[3] = Effect on glucose-dependent insulin secretion activity per ug of total protein in rat RIN5F cells at 10 uM after 30 mins

Compound	Activity [1] [pg/µg/h]	Activity [2] [pg/µg/h]	Activity [3] [pg/µg/h]
COC(=O)C1Cc2c(n(C)c3ncccc23)C(c2ccccc2)N1 (stereo unspecified)	11.9	11	12.2
Cn1c2cnc(C(=O)O)cc2c2cccnc21	17.4	15.2	19.1
Cn1c2ncccc2c2cc(C(=O)O)nc(Cc3ccccc3)c21	19.4	18.5	22.2
Cc1cnc2c(c1)c1cc(C(=O)O)ncc1n2C	20	17.3	24.2
COC(=O)c1cc2c([nH]c3ncccc32)c(-c2ccccc2)n1	12.6	12	12.9
Cc1nc(C(=O)O)cc2c3cccnc3n(C)c12	18.1	16.2	21.5
COC(=O)C1Cc2c([nH]c3ncccc23)CN1 (stereo unspecified)	10.6	10.1	10.9
Cn1c2ncccc2c2cc(C(=O)O)nc(-c3ccccc3)c21	19.3	17.2	21.1
COC(=O)c1cc2c3cccnc3n(C)c2c(Cc2ccccc2)n1	14.6	14	15
Cc1cnc2[nH]c3c(-c4ccccc4)nc(C(=O)O)cc3c2c1	19.3	17.1	21.4
Cc1cnc2[nH]c3cnc(C(=O)O)cc3c2c1	17.3	15.1	19.2
COC(=O)c1cc2c(cn1)[nH]c1ncccc12	11.9	11	12
Cc1nc(C(=O)O)cc2c1[nH]c1ncccc12	17.4	15.4	20.1
COC(=O)C1Cc2c([nH]c3ncc(C)cc23)C(C2CCCCC2)N1 (stereo unspecified)	11.5	10.9	11.9
COC(=O)c1cc2c([nH]c3ncc(C)cc32)c(Cc2ccccc2)n1	14.8	14.1	15.1
Cc1cnc2[nH]c3c(C)nc(C(=O)O)cc3c2c1	18.5	16.2	21.1
COC(=O)C1Cc2c([nH]c3ncc(C)cc23)C(c2ccccc2)N1 (stereo unspecified)	11.9	11	12.2
Cc1cnc2c(c1)c1cc(C(=O)O)nc(-c3ccccc3)c1n2C	26	19.1	32.2
O=C(O)c1cc2c(cn1)[nH]c1ncccc12	16.2	14.1	18

Compound	Activity [1] [pg/µg/h]	Activity [2] [pg/µg/h]	Activity [3] [pg/µg/h]
COC(=O)C1Cc2c(n(C)c3ncccc23)C(C2CCCCC2)N1 (stereo unspecified)	11.5	10.9	11.9
COC(=O)c1cc2c3cccnc3n(C)c2c(C)n1	13.9	13.4	14.1
COC(=O)C1Cc2c(n(C)c3ncccc23)C(Cc2ccccc2)N1 (stereo unspecified)	12.2	11.5	12.9
COC(=O)c1cc2c3cc(C)cnc3n(C)c2c(C2CCCCC2)n1	15.2	14.8	15.9
COC(=O)C1Cc2c([nH]c3ncccc23)C(C)N1 (stereo unspecified)	10.6	10.1	10.9
O=C(O)c1cc2c([nH]c3ncccc32)c(Cc2ccccc2)n1	18.3	17.1	21.5
COC(=O)c1cc2c3cccnc3n(C)c2cn1	13.1	13	13.9
COC(=O)c1cc2c([nH]c3ncc(C)cc32)c(C2CCCCC2)n1	14	13.5	14.3
COC(=O)c1cc2c([nH]c3ncc(C)cc32)c(-c2ccccc2)n1	14.2	13.9	14.9
COC(=O)C1Cc2c([nH]c3ncccc23)C(Cc2ccccc2)N1 (stereo unspecified)	11.5	10.9	11.9
COC(=O)c1cc2c([nH]c3ncccc32)c(Cc2ccccc2)n1	13	12.9	13.5
COC(=O)c1cc2c3cc(C)cnc3n(C)c2c(C)n1	15.2	14.8	15.9
Cc1cnc2[nH]c3c(Cc4ccccc4)nc(C(=O)O)cc3c2c1	19.2	18	22.1
COC(=O)c1cc2c3cc(C)cnc3n(C)c2cn1	14.9	14.3	15.6
O=C(O)c1cc2c([nH]c3ncccc32)c(C2CCCCC2)n1	17.1	15.5	20.4
Cc1cnc2c(c1)c1cc(C(=O)O)nc(C3CCCCC3)c1n2C	23.1	18.2	28.2
COC(=O)c1cc2c([nH]c3ncc(C)cc32)c(C)n1	13.9	13.5	14.2
COC(=O)c1cc2c([nH]c3ncccc32)c(C)n1	12.1	11	12.5
COC(=O)C1Cc2c(n(C)c3ncc(C)cc23)C(C)N1 (stereo unspecified)	13.2	12.3	14

Compound	Activity [1] [pg/µg/h]	Activity [2] [pg/µg/h]	Activity [3] [pg/µg/h]
Cc1cnc2[nH]c3c(C4CCCCC4)nc(C(=O)O)cc3c2c1	18.4	16.3	21.2
COC(=O)c1cc2c([nH]c3ncccc32)c(C2CCCCC2)n1	12.1	11.9	12.5
COC(=O)c1cc2c3cc(C)cnc3n(C)c2c(-c2ccccc2)n1	15.6	15.1	16.2
COC(=O)C1Cc2c([nH]c3ncccc23)C(c2ccccc2)N1 (stereo unspecified)	11.2	10.8	11.5
COC(=O)C1Cc2c([nH]c3ncc(C)cc23)C(Cc2ccccc2)N1 (stereo unspecified)	12.2	11.5	12.9
Cc1cnc2c(c1)c1cc(C(=O)O)nc(C)c1n2C	22	18.1	28.3
COC(=O)C1Cc2c(n(C)c3ncccc23)C(C)N1 (stereo unspecified)	11.5	10.9	11.9
COC(=O)C1Cc2c([nH]c3ncc(C)cc23)C(C)N1 (stereo unspecified)	11.5	10.9	11.9
COC(=O)C1Cc2c(n(C)c3ncc(C)cc23)C(C2CCCCC2)N1 (stereo unspecified)	13.4	12.4	14.2
COC(=O)C1Cc2c(n(C)c3ncccc23)CN1 (stereo unspecified)	11.2	10.8	11.5
Cn1c2ncccc2c2cc(C(=O)O)nc(C3CCCCC3)c21	18.4	16.1	21.4
COC(=O)C1Cc2c([nH]c3ncccc23)C(C2CCCCC2)N1 (stereo unspecified)	10.7	10.2	11
COC(=O)c1cc2c(cn1)[nH]c1ncc(C)cc12	13.2	13.1	13.9
COC(=O)C1Cc2c([nH]c3ncc(C)cc23)CN1 (stereo unspecified)	11.2	10.8	11.5
COC(=O)c1cc2c3cccnc3n(C)c2c(C2CCCCC2)n1	13.9	13.4	14.2
O=C(O)c1cc2c([nH]c3ncccc32)c(-c2ccccc2)n1	18.1	16.2	20.6
COC(=O)C1Cc2c(n(C)c3ncc(C)cc23)CN1 (stereo unspecified)	13.1	12.2	14.1
COC(=O)c1cc2c3cccnc3n(C)c2c(-c2ccccc2)n1	14.1	13.9	14.8
COC(=O)C1Cc2c(n(C)c3ncc(C)cc23)C(c2ccccc2)N1 (stereo unspecified)	14.9	13.5	15.2
